Assay results as given in ChEMBL document CHEMBL5038668 (J Med Chem, 2022).

Legend:
[1] = target: Cholesterol 24-hydroxylase (Homo sapiens, UniProt Q9Y6A2); experiment: biochemical
Description: Inhibition of CH24H expressing human 293-F cells for 15 minutes using [14C] cholesterol as substrate and measured after 5 hrs by trypan blue staining based thin-layer chromatography

[2] = Lipophilicity, log D of compound at pH 7.4; settings: buffer
CYP3A4 = CYP3A4 (Homo sapiens, UniProt P08684); experiment: Inhibition of human CYP3A4 at 10 uM incubated for 60 mins by LC/MS/MS analysis relative to control; assay type: ADME
Brain = experiment: In vivo inhibition of […] CH24H in C57BL/6N mouse brain assessed as reduction in 24HC level at 30 mg/kg, po for 3 days by HPLC analysis; assay type: functional; settings: 72 h, time 3 day
[3] = Plasma concentration in C57BL/6N mouse at 30 mg/kg, po and measured at 1 hr by LC/MS/MS analysis; assay type: ADME, organism-based
CYP2C8 = target: T1, CYP2C8 (Homo sapiens, UniProt P10632); experiment: Inhibition of human CYP2C8 at 10 uM incubated for 60 mins by LC/MS/MS analysis relative to control; assay type: ADME
T1 sequence (P10632 whole entry): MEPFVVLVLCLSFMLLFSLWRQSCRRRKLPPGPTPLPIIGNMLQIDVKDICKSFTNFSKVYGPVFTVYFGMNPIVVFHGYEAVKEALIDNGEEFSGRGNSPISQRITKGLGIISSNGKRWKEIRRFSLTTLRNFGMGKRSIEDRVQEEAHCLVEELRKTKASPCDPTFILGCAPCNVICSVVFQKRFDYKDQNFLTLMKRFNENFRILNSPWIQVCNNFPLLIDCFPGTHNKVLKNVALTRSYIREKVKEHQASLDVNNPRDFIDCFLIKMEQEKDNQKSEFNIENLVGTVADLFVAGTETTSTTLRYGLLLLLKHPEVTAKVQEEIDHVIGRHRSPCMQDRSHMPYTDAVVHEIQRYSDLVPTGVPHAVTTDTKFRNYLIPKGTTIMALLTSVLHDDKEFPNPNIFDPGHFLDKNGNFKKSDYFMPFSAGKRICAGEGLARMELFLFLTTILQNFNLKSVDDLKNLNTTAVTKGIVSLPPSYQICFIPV

CYP2D6 = CYP2D6 (Homo sapiens, UniProt P10635); experiment: Inhibition of human CYP2D6 at 10 uM incubated for 60 mins by LC/MS/MS analysis relative to control; assay type: ADME
CYP2C9 = CYP2C9 (Homo sapiens, UniProt P11712); experiment: Inhibition of human CYP2C9 at 10 uM incubated for 60 mins by LC/MS/MS analysis relative to control; assay type: ADME
[4] = Drug concentration in brain of C57BL/6N mouse at 30 mg/kg,po and measured at 1 hrs by LC/MS/MS analysis; assay type: ADME, organism-based; settings: read-out: Ct

Cholesterol 24-hydroxylase, sequence (Q9Y6A2 whole entry): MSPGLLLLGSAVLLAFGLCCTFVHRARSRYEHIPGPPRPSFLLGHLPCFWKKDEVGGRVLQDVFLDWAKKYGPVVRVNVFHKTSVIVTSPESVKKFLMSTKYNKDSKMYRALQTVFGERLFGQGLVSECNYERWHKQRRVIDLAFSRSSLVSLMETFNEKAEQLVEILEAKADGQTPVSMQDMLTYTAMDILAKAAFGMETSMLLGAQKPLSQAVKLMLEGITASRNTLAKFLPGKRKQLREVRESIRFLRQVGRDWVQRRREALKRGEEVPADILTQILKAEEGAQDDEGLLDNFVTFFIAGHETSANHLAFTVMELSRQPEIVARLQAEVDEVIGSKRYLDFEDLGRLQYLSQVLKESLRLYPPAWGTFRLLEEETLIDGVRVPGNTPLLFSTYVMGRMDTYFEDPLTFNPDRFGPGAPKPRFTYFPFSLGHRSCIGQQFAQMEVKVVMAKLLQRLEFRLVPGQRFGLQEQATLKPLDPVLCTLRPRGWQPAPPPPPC
CYP3A4, sequence (P08684 whole entry): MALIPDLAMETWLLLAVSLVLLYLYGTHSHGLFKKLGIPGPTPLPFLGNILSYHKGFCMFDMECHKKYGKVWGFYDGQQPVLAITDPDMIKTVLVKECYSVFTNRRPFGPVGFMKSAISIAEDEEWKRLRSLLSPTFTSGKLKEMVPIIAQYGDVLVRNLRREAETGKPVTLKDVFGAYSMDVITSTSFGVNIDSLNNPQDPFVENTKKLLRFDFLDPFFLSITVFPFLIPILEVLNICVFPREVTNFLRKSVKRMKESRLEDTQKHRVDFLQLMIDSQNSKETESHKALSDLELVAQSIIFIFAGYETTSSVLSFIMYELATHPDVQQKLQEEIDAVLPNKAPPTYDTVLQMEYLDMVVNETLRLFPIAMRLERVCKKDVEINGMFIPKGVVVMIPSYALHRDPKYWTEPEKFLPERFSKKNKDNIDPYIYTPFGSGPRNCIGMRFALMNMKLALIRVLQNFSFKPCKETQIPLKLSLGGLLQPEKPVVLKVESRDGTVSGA
CYP2D6, sequence (P10635 whole entry): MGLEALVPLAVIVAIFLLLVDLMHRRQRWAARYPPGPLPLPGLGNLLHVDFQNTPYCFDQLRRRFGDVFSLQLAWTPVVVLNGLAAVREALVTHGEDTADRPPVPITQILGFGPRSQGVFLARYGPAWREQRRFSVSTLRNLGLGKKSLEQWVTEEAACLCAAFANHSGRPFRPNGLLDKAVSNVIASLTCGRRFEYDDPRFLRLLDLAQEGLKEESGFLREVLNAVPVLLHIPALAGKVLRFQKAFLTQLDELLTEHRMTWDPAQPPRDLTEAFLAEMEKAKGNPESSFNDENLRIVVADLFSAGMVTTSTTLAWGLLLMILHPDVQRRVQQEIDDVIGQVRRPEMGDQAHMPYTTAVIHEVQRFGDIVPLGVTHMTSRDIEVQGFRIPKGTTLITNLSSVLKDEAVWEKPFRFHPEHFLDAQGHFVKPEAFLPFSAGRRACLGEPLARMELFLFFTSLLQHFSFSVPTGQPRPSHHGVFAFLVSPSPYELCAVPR
CYP2C9, sequence (P11712 whole entry): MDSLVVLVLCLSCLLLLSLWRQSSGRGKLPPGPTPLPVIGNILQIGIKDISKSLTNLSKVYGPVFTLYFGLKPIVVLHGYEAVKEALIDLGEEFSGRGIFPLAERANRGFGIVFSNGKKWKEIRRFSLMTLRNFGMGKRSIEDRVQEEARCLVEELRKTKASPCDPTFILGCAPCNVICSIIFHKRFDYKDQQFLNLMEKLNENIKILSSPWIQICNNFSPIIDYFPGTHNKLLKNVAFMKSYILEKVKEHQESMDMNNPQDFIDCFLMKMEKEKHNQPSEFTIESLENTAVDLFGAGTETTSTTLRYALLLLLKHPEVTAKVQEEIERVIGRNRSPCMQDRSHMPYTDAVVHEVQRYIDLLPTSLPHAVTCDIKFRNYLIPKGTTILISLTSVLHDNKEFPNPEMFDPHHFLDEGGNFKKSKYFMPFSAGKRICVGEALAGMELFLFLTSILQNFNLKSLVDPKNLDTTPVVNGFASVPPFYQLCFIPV

| IC50 [1] | logD [2] | inhibition at 1 h, 10 µM (CYP3A4) | SMILES | also measured |
| --- | --- | --- | --- | --- |
| 9.5 nM | 2.1 | 31% | CN(C)C(=O)C1CCN(c2cnccc2-n2cc(Br)cn2)CC1 |  |
| 8.5 nM | 1.6 | 21% | Cc1cnn(-c2ccncc2N2CCC(C(=O)N(C)C)CC2)c1 | inhibition in vivo at 30 mg/kg (Brain): 26%; concentration at 1 h [3]: 179 µM; inhibition at 1 h, 10 µM (CYP2C8): 2%; inhibition at 1 h, 10 µM (CYP2D6): 3%; inhibition at 1 h, 10 µM (CYP2C9): 19%; concentration at 1 h [4]: 0.102 µM |
| 12 nM | 2.1 | 56% | CN(C)C(=O)C1CCN(c2cnccc2-n2cc(C3CC3)cn2)CC1 |  |
| 52 nM |  |  | O=C(NC1CC1)N1CCN(c2cnccc2-c2ccccc2)CC1 |  |
| 44 nM | 1.8 | 50% | O=C(NC1CC1)C1CCN(c2cncnc2-c2ccccc2)CC1 |  |
| 24 nM |  | 19% | CN(C)C(=O)C1CCN(c2cnccc2-n2cc(Cl)cn2)CC1 |  |
| 8.1 nM | 2.5 | 83% | O=C(NC1CC1)C1CCN(c2cnccc2-c2ccccc2)CC1 |  |
| 74 nM |  |  | O=C(NC1CC1)c1ccc(-c2cnccc2-c2ccccc2)cc1 |  |
| 950 nM |  |  | O=C(NC1CC1)N1CCC(c2cnccc2-c2ccccc2)CC1 |  |
| 14 nM | 2.1 | 35% | CCN(C)C(=O)C1CCN(c2cncnc2-c2ccccc2)CC1 |  |
| 1100 nM | 1.5 | 5% | Cc1ccn(-c2ccncc2N2CCC(C(=O)N(C)C)CC2)n1 |  |
| 68 nM | 1.2 | 11% | CN(C)C(=O)C1CCN(c2cnccc2-c2ccccn2)CC1 |  |
| 65 nM | 2.1 | 47% | CN(C)C(=O)C1CCN(c2cnccc2-n2cc(C(F)(F)F)cn2)CC1 |  |
| 16 nM | 1.7 | 28% | CN(C)C(=O)C1CCN(c2cncnc2-c2ccccc2)CC1 |  |
| 48 nM | 1.1 | 1% | CN(C)C(=O)C1CCN(c2cnccc2-n2cccn2)CC1 |  |
| 12 nM | 2 | 32% | Cc1cnc(-c2ccncc2N2CCC(C(=O)N(C)C)CC2)s1 |  |
| 72 nM | 1.4 | 31% | CNC(=O)C1CCN(c2cncnc2-c2ccccc2)CC1 |  |
| 160 nM | 1.3 | 29% | O=C(NC1CC1)C1CCN(c2cnccc2-c2ccccn2)CC1 |  |
| 28 nM | 2.7 | 84% | O=C(Nc1ccccc1)C1CCN(c2cncnc2-c2ccccc2)CC1 |  |
| 7.3 nM | 1.9 | 37% | CN(C)C(=O)C1CCN(c2cncnc2-c2ccc(F)cc2)CC1 |  |
| 58 nM | 1.8 | 42% | CCNC(=O)C1CCN(c2cncnc2-c2ccccc2)CC1 |  |

| SMILES | IC50 [1] | logD [2] | inhibition at 1 h, 10 µM (CYP3A4) | also measured |
| --- | --- | --- | --- | --- |
| S=C(NC1CCCCC1)N1CCC(c2cnc[nH]2)CC1 [THIOPERAMIDE] | 430 nM |  |  |  |
